According to PubChem BioAssay AID1996:
In brackets after ≈: the same amount, converted by molar mass.

details: buffer; pH 7.4; 200.0 µM

Point of comparison: `C=C(C)C(=O)Nc1cccnc1Oc1ccc(F)cc1F`, solubility kinetic 40.8 µg/mL (≈ 141 µM). Against it:
- CCCCn1c(N)c(N(CC)C(=O)CCNC(=O)c2ccc(Cl)cc2)c(=O)[nH]c1=O — higher, > 65.4 µg/mL
- Cn1c(=O)n(CCO)c(=O)c2c1nc(Br)n2Cc1ccccc1 — higher, > 56.9 µg/mL
- CCN(CC(=O)Nc1ccc(C)c(F)c1)CC(=O)NC(C)C — higher, > 46.4 µg/mL
- CC(O)c1ccc(Oc2cnccn2)cc1 (stereo not given) — not separable, > 32.4 µg/mL
- Cc1ccc(S(=O)(=O)NCc2ccccc2)cc1 — 1.6-fold lower, 25.9 µg/mL (≈ 99.1 µM)
- COc1ccc(C(=O)NC(=S)N(C)C2CCCCC2)cc1 — 7.4-fold lower, 5.5 µg/mL (≈ 17.9 µM)
- CCOC(=O)NC(=O)CSc1ccc(C)cc1C — not separable, > 40.1 µg/mL
- Cc1ccc(NC(=O)Nc2cc(C(F)(F)F)c[nH]c2=O)cc1 — 100-fold lower, 0.4 µg/mL (≈ 1.29 µM)
- O=C(COC(=O)c1ccccc1Br)Nc1ccccc1F — 7.6-fold lower, 5.4 µg/mL (≈ 15.3 µM)
- CCCSc1ncnc2sc(C)c(C)c12 — 82-fold lower, 0.5 µg/mL (≈ 2.1 µM)
- O=C(Cc1ccccc1)NC(=S)Nc1ccc(OC(F)F)cc1 — 3.6-fold lower, 11.2 µg/mL (≈ 33.3 µM)
- C=CCNC(=S)N1CCOCC1 — not separable, > 27.9 µg/mL
- CC(C)/C(C=O)=C(/NC1CCCCC1)c1ccccc1 — 45-fold lower, 0.9 µg/mL (≈ 3.32 µM)
- CCCn1c(Oc2ccccc2)nc2c1c(=O)n(C)c(=O)n2C — within 1.5-fold, 45 µg/mL (≈ 143 µM)
- COc1ccccc1NS(=O)(=O)c1ccc(C(=O)NCC(c2ccc(F)cc2)N2CCOCC2)cc1 (stereo not given) — higher, > 77 µg/mL
- COC(=O)c1c(NC(C)=O)sc(C)c1C — within 1.5-fold, 31 µg/mL (≈ 136 µM)
- COc1ccc(N2CCN(C(=O)c3cc(C)oc3C)CC2)cc1 — within 1.5-fold, 42.2 µg/mL (≈ 134 µM)
- CCC/C(O)=C1\C(=O)CCCC1=NCCc1c(C)[nH]c2ccccc12 — within 1.5-fold, 34.4 µg/mL (≈ 102 µM)
- Cc1cccc(C)c1NC(=O)N1C2CCC1CC(O)(c1cccnc1)C2 (stereo not given) — higher, > 52.7 µg/mL
- CC(C)CC(=O)N1CCN(Cc2ccc3ccccc3c2)CC1 — 1.5-fold lower, 26.4 µg/mL (≈ 85 µM)
- Cc1cc(Cl)ccc1NC(=S)NCCc1ccc(Cl)cc1 — lower, < 0.4 µg/mL
- COc1ccc(NC(=O)CN(C)C(=O)Cc2ccc3c(c2)CCC3)cc1 — 3.3-fold lower, 12.2 µg/mL (≈ 34.6 µM)
- COc1ccc(OCCC(=O)Nc2ccc(S(N)(=O)=O)cc2)cc1 — within 1.5-fold, 48.1 µg/mL (≈ 137 µM)
- CCCCNC(=O)CN1C(=O)NC2(CCOc3ccccc32)C1=O (stereo not given) — higher, > 49.7 µg/mL
- COc1cccc(OC)c1OC(=O)C1CC(=O)N(c2ccc3c(c2)OCCO3)C1 (stereo not given) — higher, > 59.9 µg/mL
- CC(C(=O)Nc1cccc(C#N)c1)N(C)CCOc1ccccc1 (stereo not given) — within 1.5-fold, 31.8 µg/mL (≈ 98.3 µM)
- COc1ccc(C(=O)O)cc1S(=O)(=O)Nc1ccc(N2CCCCC2)cc1 — within 1.5-fold, 54.7 µg/mL (≈ 140 µM)
- Fc1ccc(-n2cc(-c3ccccc3)c3c(=S)nc[nH]c32)cc1 — lower, < 0.2 µg/mL
- Cn1c(-c2ccccc2)cc2ccccc21 — 68-fold lower, 0.6 µg/mL (≈ 2.89 µM)
- COC(=O)C1=C(C)N(C)C(=O)NC1c1ccc(O)c(Cl)c1 (stereo not given) — higher, > 46.6 µg/mL
- Cc1ccc(Cl)cc1NC(=O)COC(=O)CSc1ccccc1 — 5.7-fold lower, 7.2 µg/mL (≈ 20.6 µM)
- O=c1c2ccccc2ncn1-c1ccc([N+](=O)[O-])cc1[N+](=O)[O-] — 15-fold lower, 2.7 µg/mL (≈ 8.65 µM)
- Nc1c(Cl)ncnc1NCc1ccccc1 — within 1.5-fold, 32.6 µg/mL (≈ 139 µM)
- NC(=O)c1ccc(NC(=O)COC(=O)C2CCN(S(=O)(=O)c3cccs3)CC2)cc1 — 1.6-fold lower, 25.1 µg/mL (≈ 55.6 µM)
- Nc1nccc(-c2ccc(-n3cccc3)cc2)n1 — lower, < 0.1 µg/mL
- CCCCCC1C/C(=N\O)C=C(C)C1C(=O)OC (stereo not given) — not separable, > 38 µg/mL
- O=C(Cc1cccs1)Nc1ccc([N+](=O)[O-])cc1 — within 1.5-fold, 39 µg/mL (≈ 149 µM)
- COCCn1c(C)cc(/C=C2/SC(=O)N(C(C)C(=O)OC)C2=O)c1C (stereo not given) — within 1.5-fold, 36 µg/mL (≈ 98.2 µM)
- Cc1ccc2c(c1)N(CC(=O)N1CCCC1)C(=O)C(C)O2 (stereo not given) — higher, > 43.3 µg/mL
- CCN1CCN(c2nc(-c3ccccc3)c3ccccc3n2)CC1 — within 1.5-fold, 46.1 µg/mL (≈ 145 µM)
- CCN(CCO)c1ncnc2onc(-c3ccc(F)cc3)c12 — higher, > 45.3 µg/mL
- Cc1ccc2nc(SCC(=O)c3ccccc3)nc(=O)n2c1 — within 1.5-fold, 33 µg/mL (≈ 106 µM)
- Cc1c(Cl)cccc1NC(=O)NCCCN1CCCC1=O — higher, > 46.5 µg/mL
- Cc1nc(Cl)c(C(=O)NCc2ccccc2)c(C)c1Cl — within 1.5-fold, 35.6 µg/mL (≈ 115 µM)
- COc1ccccc1N1C(=O)CSC1=NC(=O)c1ccccc1 — 14-fold lower, 3 µg/mL (≈ 9.19 µM)
- CCN1CCc2c(OCc3ccc(C)cc3)cccc2C1=O — 2.2-fold lower, 18.9 µg/mL (≈ 64 µM)
- CCN(c1ccccc1)S(=O)(=O)c1cc(NC(=O)CN2CCN(C)CC2)ccc1Cl.O=C(O)C(=O)O — higher, > 81.2 µg/mL
- COc1ccc(C(=O)Nc2nc(-c3ccccc3)c(C(C)=O)s2)c(OC)c1 — 58-fold lower, 0.7 µg/mL (≈ 1.83 µM)
- O=C(Nc1nnc(C2=COCCO2)o1)c1ccc(F)cc1 — higher, > 43.7 µg/mL
- CN(C)CCN(C(=O)c1ccc2ccccc2c1)c1nc2c(F)cc(F)cc2s1.Cl — within 1.5-fold, 32.8 µg/mL
- C[n+]1cccc(C(=O)Nc2ccccc2)c1.[Cl-] — within 1.5-fold, 30 µg/mL
- COCc1cc(C)nc(Oc2ccccc2)c1C#N — not separable, > 38.1 µg/mL
- CN1CCC(N(C)C(=O)c2cc(S(=O)(=O)N(C)c3ccccc3)ccc2Cl)CC1.Cl — higher, > 70.9 µg/mL
- CCc1nnc(SCC(=O)NC2CC2)n1CC — not separable, > 38.2 µg/mL
- COCCNC(=O)Cn1cc(C(=O)c2ccccc2F)c2ccccc21 — 2.3-fold lower, 17.9 µg/mL (≈ 50.5 µM)
- c1ccc(CCNc2nc(-c3ccccn3)nc3ccccc23)cc1 — within 1.5-fold, 31.4 µg/mL (≈ 96.2 µM)
- Cc1cc(=O)oc2cc(NC(=S)NCc3cccnc3)ccc12 — 4.6-fold lower, 8.9 µg/mL (≈ 27.4 µM)
- CC(C)C(OC(=O)c1cccs1)C(=O)NCc1ccccc1 (stereo not given) — within 1.5-fold, 29.4 µg/mL (≈ 92.6 µM)
- O=C1CC(/C=C/c2cccnc2)=Nc2ccccc2N1 — 1.7-fold lower, 24.4 µg/mL (≈ 92.7 µM)
